Values of other authors as cited in patent publication US20080014263A1, “Amorphous eprosartan mesylate and process for the preparation thereof” (Glenmark Pharmaceuticals Limited, priority 2006, published 2008).
Structures can show the parent of a compound that is named as a salt.

Conditions: white to off-white free-flowing crystalline powder

solubility in ethanol (ethanol): freely soluble | solubility in water (water): insoluble
SMILES: CCCCc1ncc(/C=C(\Cc2cccs2)C(=O)O)n1Cc1ccc(C(=O)O)cc1 [Eprosartan mesylate, monomethanesulphonate of (E)-2-butyl-1-(p-carboxybenzyl)-α-2-thienylmethylimidazole-5-acrylic acid]
